Measurements from ChEMBL document CHEMBL1201862, “PubChem BioAssay data set” (2004).
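Tested at 5 concentrations; 48 h exposure; 96-well plates; endpoints linearly interpolated, else capped at highest concentration. Abbreviation: GI50, concentration required for 50% inhibition of growth.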 Activity calls are given as the source filed them. Cut-off read from the data, not from the text of the source: active = GI50 up to about 1.1 µM and inactive = higher.

Columns and labels:
Assay in all cases: NCI anticancer screen, dose series, 48 h
[1] = tested on: BT-549
[2] = tested on: DU-145
[3] = tested on: HT-29
[4] = tested on: MDA-MB-231
[5] = tested on: MDA-MB-435
[6] = tested on: NCI-H460
[7] = tested on: OVCAR-5
[8] = tested on: PC-3
[9] = tested on: RPMI-8226
[10] = tested on: SK-MEL-28
[11] = tested on: T47D
[12] = tested on: UACC-62
[13] = tested on: Hs-578T
[14] = tested on: MDA-N
[15] = tested on: NCI/ADR-RES
[16] = tested on: 786-0
[17] = tested on: A498
[18] = tested on: DMS-273
[19] = tested on: KM-20L2
[20] = tested on: M19-MEL

Measured: GI50

CCOc1ncn(-c2ccc(NC(=S)Nc3ncccn3)cc2)n1
inactive: [1] 20.8 µM | [2] 66.8 µM | [3] 13 µM | [4] 24.8 µM | [5] 56.1 µM | [6] 41.4 µM | [7] 54.8 µM | [8] 46.5 µM | [9] 10.6 µM | [10] 26.1 µM | [11] 21.7 µM | [12] 28.8 µM

CCN1c2ccccc2-n2c(C)nnc2-c2c(-c3ccccc3)n[nH]c21
inactive: [2] 36.1 µM | [3] 24.5 µM | [13] 46.1 µM | [4] 18.9 µM | [5] 16.2 µM | [14] 28 µM | [6] 27.8 µM | [15] 11.9 µM | [7] > 100 µM | [8] 30.4 µM | [9] 14.8 µM | [10] 30.5 µM | [11] 14.7 µM | [12] 22.4 µM

CCOC(=O)CCN1C(=O)c2c(NC(=O)C(=O)O)cccc2S1(=O)=O
inactive: [16] > 100 µM | [17] > 100 µM | [1] > 100 µM | [2] > 100 µM | [3] > 100 µM | [13] > 100 µM | [4] > 100 µM | [5] > 100 µM | [14] > 100 µM | [6] > 100 µM | [15] > 100 µM | [7] > 100 µM | [8] > 100 µM | [9] > 100 µM | [10] > 100 µM | [11] > 100 µM | [12] > 100 µM

C=C1C(=O)OC2C[C@@]3(C)CCCC(=C)C3CC12 (some centres not stated)
inactive: [17] 6.89 µM | [18] 2.54 µM | [3] 7.14 µM | [19] 12.2 µM | [6] 4.68 µM | [7] 19.5 µM | [10] 11.7 µM | [12] 5.56 µM

CCc1c(-c2ccc(OC)cc2)oc(OC)c(C)c1=O
inactive: [16] > 100 µM | [17] 68.9 µM | [1] 93.8 µM | [2] > 100 µM | [3] 91.4 µM | [13] > 100 µM | [4] 75.7 µM | [5] > 100 µM | [6] 40.5 µM | [15] 49 µM | [7] > 100 µM | [8] 57.4 µM | [10] > 100 µM | [11] 45 µM | [12] 64 µM

Cc1ccc(Nc2nc3ccccc3c(=O)n2N)cc1
inactive: [16] > 100 µM | [1] > 100 µM | [2] > 100 µM | [3] 78.2 µM | [13] > 100 µM | [4] > 100 µM | [5] > 100 µM | [14] > 100 µM | [6] > 100 µM | [15] > 100 µM | [7] > 100 µM | [8] > 100 µM | [9] > 100 µM | [10] > 100 µM | [11] > 100 µM | [12] > 100 µM

CCP(=O)(CC)C(Cl)(Cl)C(O)C(Cl)(Cl)Cl (configuration not stated)
inactive: [2] > 100 µM | [3] > 100 µM | [13] > 100 µM | [4] > 100 µM | [14] > 100 µM | [6] > 100 µM | [15] > 100 µM | [7] > 100 µM | [8] > 100 µM | [9] > 100 µM | [10] > 100 µM | [11] > 100 µM

COc1ccc(-c2cc(O)c3c(C)ccnc3n2)cc1
inactive: [17] 14.3 µM | [1] 33.7 µM | [2] 28.8 µM | [3] 4.93 µM | [13] 23.8 µM | [4] 49.5 µM | [15] 20.2 µM | [7] 20.5 µM | [9] 9.31 µM | [10] 15.3 µM | [11] 7.43 µM | [12] 10.6 µM

Cc1nc(Cl)c(C)c(Cl)n1
inactive: [16] > 100 µM | [17] > 100 µM | [1] > 100 µM | [2] > 100 µM | [3] > 44.7 µM | [13] > 75.2 µM | [4] > 100 µM | [5] 33.3 µM | [14] 18.8 µM | [6] > 100 µM | [15] > 53 µM | [7] > 100 µM | [8] > 93.3 µM | [9] > 100 µM | [10] > 93.3 µM | [11] > 100 µM | [12] > 80.4 µM

CC1=Nc2c(N)nc(N)nc2N(C)C1
inactive: [1] > 100 µM | [2] > 100 µM | [13] > 100 µM | [4] > 100 µM | [5] > 100 µM | [14] > 100 µM | [6] > 100 µM | [7] > 100 µM | [8] > 100 µM | [9] > 100 µM | [10] > 100 µM | [11] > 100 µM | [12] > 100 µM

C/C(=C/CC[C@](C)(OC1OC(CO)C(O)C(O)C1O)[C@H]1CC[C@]2(C)[C@@H]1CC[C@@H]1[C@@]3(C)CC[C@H](O)C(C)(C)[C@@H]3C[C@H](O)[C@]12CO)CO (some centres not stated)
inactive: [16] > 100 µM | [17] > 100 µM | [1] > 100 µM | [2] > 100 µM | [3] > 100 µM | [13] > 100 µM | [4] > 100 µM | [5] > 100 µM | [14] > 100 µM | [6] > 100 µM | [15] > 100 µM | [7] > 100 µM | [8] > 100 µM | [9] > 100 µM | [10] > 100 µM | [11] > 100 µM | [12] > 100 µM

O=C(N/C(=C\c1ccccc1[N+](=O)[O-])c1nc2ccccc2[nH]1)c1ccccc1
inactive: [18] > 100 µM | [3] > 100 µM | [19] > 100 µM | [20] > 100 µM | [7] > 100 µM | [10] > 100 µM | [12] 62.4 µM

CC(C)c1ccc(/C=C2\CSCC3=C2N=C2SCC(=O)N2C3c2ccc(C(C)C)cc2)cc1 (configuration not stated)
inactive: [16] > 100 µM | [2] > 100 µM | [3] > 100 µM | [13] > 100 µM | [4] > 100 µM | [5] > 100 µM | [14] > 100 µM | [6] > 100 µM | [15] > 100 µM | [7] > 100 µM | [8] > 100 µM | [9] 80.7 µM | [10] > 100 µM | [11] 57.9 µM | [12] > 100 µM

CC(=O)c1c(-c2ccco2)c(C#N)c(=S)n(C2OC(CO)C(O)C(O)C2O)c1-c1ccccc1 (configuration not stated)
inactive: [1] > 100 µM | [2] 87.3 µM | [3] > 100 µM | [13] 61.8 µM | [4] > 100 µM | [5] 29.2 µM | [14] > 10 µM | [6] > 100 µM | [15] 55.1 µM | [7] > 100 µM | [8] 64.4 µM | [9] > 100 µM | [10] 38.9 µM | [11] 29.4 µM | [12] 32 µM

CCOC(=O)NC(Nc1ncccn1)(C(F)(F)F)C(F)(F)F
inactive: [17] > 100 µM | [1] > 100 µM | [2] > 100 µM | [3] > 100 µM | [13] > 100 µM | [4] > 100 µM | [5] > 100 µM | [14] > 100 µM | [6] > 100 µM | [7] > 100 µM | [9] > 100 µM | [10] > 100 µM | [11] > 100 µM | [12] > 100 µM

O=c1c2cc(O)c(O)cc2oc2cc(O)c(C3OC(CO)C(O)C(O)C3O)c(O)c12 (configuration not stated)
inactive: [16] > 100 µM | [17] > 100 µM | [1] > 100 µM | [3] > 100 µM | [13] > 100 µM | [4] > 100 µM | [5] > 100 µM | [14] > 100 µM | [6] > 100 µM | [15] > 100 µM | [7] > 100 µM | [8] > 100 µM | [9] > 100 µM | [10] > 100 µM | [11] > 100 µM | [12] > 100 µM

O=C(Nc1ccccc1C(=O)NCCCO)/C(=C/c1ccccc1O)NC(=O)c1ccccc1
inactive: [16] 34 µM | [17] > 91.2 µM | [1] 19.8 µM | [2] > 81.8 µM | [3] > 100 µM | [13] 26.2 µM | [4] 26.7 µM | [5] > 50.5 µM | [14] > 43.5 µM | [6] > 72.1 µM | [15] 17 µM | [7] > 100 µM | [8] 33.1 µM | [9] > 100 µM | [10] > 100 µM | [11] 16.3 µM | [12] 19.5 µM

O=C1O/C(=C\c2ccc(O)c(Br)c2)C(c2ccc(O)c(Cl)c2)=C1Br
inactive: [16] 16.3 µM | [17] 19.5 µM | [1] 17.9 µM | [2] 18.8 µM | [3] 12.9 µM | [13] 15.7 µM | [4] 37.3 µM | [5] 16 µM | [14] 16.8 µM | [6] 17.1 µM | [15] 19.9 µM | [7] 18.6 µM | [8] 11.7 µM | [9] 13.2 µM | [10] 16.3 µM | [11] 19 µM | [12] 13.9 µM

O=C1c2cccc(O)c2C(=O)c2c(O)cc(CO)cc21 [ALOE-EMODIN]
inactive: [17] 74.3 µM | [18] 27.5 µM | [3] 30.9 µM | [19] 39.4 µM | [6] 29.4 µM | [7] > 100 µM | [9] 31.5 µM | [10] > 100 µM
